Reference: patent publication US11439618B2, “Compositions and methods for lowering triglycerides” (Amarin Pharmaceuticals Ireland Limited, priority 2009, dated 2022)

Assay: Essential fatty acid (EFA) parameters in plasma and RBC, gas chromatography of fatty acid methyl esters
Type: in vivo, human
Description: Blood samples (10 mL) were collected at Visit 1 (screening) and at Visits 4, 5 and 6. Analysis was performed by MSR Lipid Analysis, Scottish Crop Research Institute, Dundee, UK. The screening sample acted as baseline for the EFA measurements. Lipid was extracted from plasma, serum and RBC suspensions and converted into fatty acid methyl esters which were analyzed by gas chromatography to give fatty acid profiles as micrograms fatty acid per gram of sample (μgFA/g) and normalized area percent.
RBC and plasma EFA data were collected at baseline, Day 14, 28 and 42 and summarized by visit for each treatment group. Change from baseline and percent change from baseline were also summarized. ANCOVA comparison of ethyl-EPA dose groups and ethyl-EPA versus placebo was performed.
Notable changes for these parameters occurred in the ethyl-EPA treatment groups at Days 14, 28 and 42 compared to placebo.

[1] = plasma, 1 g daily group, Baseline
[2] = plasma, 2 g daily group, Baseline
[3] = plasma, 4 g daily group, Baseline

## CC/C=C\C/C=C\C/C=C\C/C=C\C/C=C\CCCC(=O)OCC [Ethyl-EPA, all-cis eicosa-5,8,11,14,17-pentaenoic acid ethyl ester]
Plasma and RBC, to Day 42, 1, 2 and 4 g
  EPA, DPAn-3 and EPA/AA ratio values, change from baseline: increased substantially from baseline
Plasma and RBC, to day 42, 1, 2 and 4 g
  AA, DHA and DGLA values, change from baseline: decreased substantially from baseline
[1]
  AA Mean at Baseline: 202.5 µg/g
  DGLA Mean at Baseline: 51.2 µg/g
  DHA Mean at Baseline: 73.1 µg/g
  DPAn-3 Mean at Baseline: 21.1 µg/g
  EPA Mean at Baseline: 48.3 µg/g
  EPA/AA Mean (SD) at Baseline: 0.2 (0.14)
plasma, 1 g daily, Day 14
  AA Mean change from Baseline: -9.7 µg/g
  DGLA Mean change from Baseline: -10.4 µg/g
  DHA Mean change from Baseline: -6.4 µg/g
  DPAn-3 Mean change from Baseline: 7.5 µg/g
  EPA Mean change from Baseline: 61.2 µg/g
  EPA/AA Mean (SD) change from Baseline: 0.3 (0.4)
plasma, 1 g daily, Day 28
  AA Mean change from Baseline: -11.3 µg/g
  DGLA Mean change from Baseline: -10.6 µg/g
  DHA Mean change from Baseline: -6.6 µg/g
  DPAn-3 Mean change from Baseline: 8.9 µg/g
  EPA Mean change from Baseline: 60.3 µg/g
  EPA/AA Mean (SD) change from Baseline: 0.3 (0.20)
plasma, 1 g daily, Day 42
  AA Mean change from Baseline: -8.7 µg/g
  DGLA Mean change from Baseline: -9.4 µg/g
  DHA Mean change from Baseline: -5.4 µg/g
  DPAn-3 Mean change from Baseline: 11.3 µg/g
  EPA Mean change from Baseline: 62.0 µg/g
  EPA/AA Mean (SD) change from Baseline: 0.3 (0.24)
plasma, 1 g versus 4 g
  AA LS Mean, 1 or 2 g versus 4 g: 4.2 µg/g
  DGLA LS Mean, 1 or 2 g versus 4 g: 3.7 µg/g
  DHA LS Mean, 1 or 2 g versus 4 g: -0.8 µg/g
  DPAn-3 LS Mean, 1 or 2 g versus 4 g: -15.1 µg/g
  EPA LS Mean, 1 or 2 g versus 4 g: -111.8 µg/g
  EPA/AA LS Mean, 1 or 2 g versus 4 g: −0.66
[2]
  AA Mean at Baseline: 227.3 µg/g
  DGLA Mean at Baseline: 53.5 µg/g
  DHA Mean at Baseline: 75.1 µg/g
  DPAn-3 Mean at Baseline: 19.7 µg/g
  EPA Mean at Baseline: 4.49 µg/g
  EPA/AA Mean at Baseline: 0.2
plasma, 2 g daily, Day 14
  AA Mean change from Baseline: -13.9 µg/g
  DGLA Mean change from Baseline: -14.1 µg/g
  DHA Mean change from Baseline: -5.4 µg/g
  DPAn-3 Mean change from Baseline: 17.4 µg/g
  EPA Mean change from Baseline: 124.6 µg/g
  EPA/AA Mean change from Baseline: 0.6
plasma, 2 g daily, Day 28
  AA Mean change from Baseline: 21.6 µg/g
  DGLA Mean change from Baseline: -16.2 µg/g
  DHA Mean change from Baseline: -8.1 µg/g
  DPAn-3 Mean change from Baseline: 19.4 µg/g
  EPA Mean change from Baseline: 142.2 µg/g
  EPA/AA Mean change from Baseline: 0.8
plasma, 2 g daily, Day 42
  AA Mean change from Baseline: -27.3 µg/g
  DGLA Mean change from Baseline: -17.3 µg/g
  DHA Mean change from Baseline: -6.0 µg/g
  DPAn-3 Mean change from Baseline: 19.3 µg/g
  EPA Mean change from Baseline: 133.4 µg/g
  EPA/AA Mean change from Baseline: 0.7
plasma, 2 g versus 4 g
  AA LS Mean, 1 or 2 g versus 4 g: 15.6 µg/g
  DGLA LS Mean, 1 or 2 g versus 4 g: 2.5 µg/g
  DHA LS Mean, 1 or 2 g versus 4 g: 1.5 µg/g
  DPAn-3 LS Mean, 1 or 2 g versus 4 g: -9.5 µg/g
  EPA LS Mean, 1 or 2 g versus 4 g: -60.9 µg/g
  EPA/AA LS Mean, 1 or 2 g versus 4 g: −0.41
[3]
  AA Mean (SD) at Baseline: 220.9 (42.80) μg/g
  DGLA Mean at Baseline: 57.1 µg/g
  DHA Mean at Baseline: 78.8 µg/g
  DPAn-3 Mean at Baseline: 21.7 µg/g
  EPA Mean at Baseline: 49.1 µg/g
  EPA/AA Mean (SD) at Baseline: 0.2 (0.07)
plasma, 4 g daily, Day 14
  AA Mean (SD) change from Baseline: −27.2 (28.89) μg/g
  DGLA Mean change from Baseline: -22.9 µg/g
  DHA Mean change from Baseline: -10.3 µg/g
  DPAn-3 Mean change from Baseline: 24.5 µg/g
  EPA Mean change from Baseline: 207.7 µg/g
  EPA/AA Mean (SD) change from Baseline: 1.1 (0.28)
plasma, 4 g daily, Day 28
  AA Mean (SD) change from Baseline: −43.7 (32.24) μg/g
  DGLA Mean change from Baseline: -24.2 µg/g
  DHA Mean change from Baseline: -13.5 µg/g
  DPAn-3 Mean change from Baseline: 29.7 µg/g
  EPA Mean change from Baseline: 215.2 µg/g
  EPA/AA Mean (SD) change from Baseline: 1.3 (0.42)
plasma, 4 g daily, Day 42
  AA Mean (SD) change from Baseline: −48.3 (22.20) μg/g
  DGLA Mean change from Baseline: -22.5 µg/g
  DHA Mean change from Baseline: -13.8 µg/g
  DPAn-3 Mean change from Baseline: 32.0 µg/g
  EPA Mean change from Baseline: 204.6 µg/g
  EPA/AA Mean (SD) change from Baseline: 1.3 (0.45)
